Source: patent publication US9908843B2, “Benzamide derivatives useful in the treatment of muscular disorders and pain and for controlling spasticity and tremors” (Canbex Therapeutics Limited, priority 2013, dated 2018)
Where two headings read alike, the source gives them in different places.

Legend:
[1] = system: mouse vas deferens (CB2 knock-out); assay: VSN-16R dose response curve in mouse vas deferens, CB2 knock-out; type: cell-based
[2] = system: mouse vas deferens (CB1 knock-out); assay: VSN-16R dose response curve in mouse vas deferens, CB1 knock-out; type: cell-based
mouse vas deferens = assay: Inhibition of electrically-evoked contractions of the mouse isolated vas deferens; type: cell-based; settings: for potency (EC50) greater than VSN-16R: vas deferens mouse assay, relative to VSN-16R
Description: Compounds were evaluated using a mouse vas deferens preparation [Ward S, Mastriani D, Casiano F and Arnold R (1990) J Pharmacol Exp Ther 255:1230-1239]. The mouse vas deferens isolated tissue preparation is used as an in vitro bioassay to assess the actions of compounds on neurotransmission. Electrically-evoked contractions are induced in the preparation and compounds which affect neurotransmission will inhibit these contractions in a concentration related manner. […] CB1 agonists inhibit electrically-evoked contractions.
Vasa deferentia were obtained from albino MF1 mice weighing 31-59 g. The tissues were mounted vertically in 4 ml organ baths. They were then subjected to electrical stimulation of progressively greater intensity, followed by an equilibration procedure in which they were exposed to alternate periods of stimulation (2 min) and rest (10 min) until contractions with consistent amplitudes were obtained. These contractions were monophasic and isometric, and were evoked by 0.5 s trains of pulses of 110% maximal voltage (train frequency 0.1 Hz; pulse frequency 5 Hz; pulse duration 0.5 ms).
All drug additions were made to the organ baths after the equilibration period and there was no washout between these additions. Potential antagonist or its vehicle were added to the preparation. This was followed 28 min later by a 2-min period of electrical stimulation, at the end of which the lowest of a series of concentrations of the twitch inhibitors was applied. After a period of rest, the tissues were electrically stimulated for 2 min and then subjected to a further addition of twitch inhibitor. This cycle of drug addition, rest and 2 min stimulation was repeated so as to construct cumulative concentration—response curves. Only one concentration—response curve was constructed per tissue.
Values for EC50, maximal effect (Emax) and the s.e.m. or 95% confidence limits of these values have been calculated by nonlinear regression analysis using the equation for a sigmoid concentration—response curve (GraphPad Prism).

spasticity in CREAE mice = settings: cited from earlier work
[3] = Mus musculus, Table 2, read-out: EC50
[4] = Mus musculus, Table 2, read-out: Emax (%)

| Compound | EC50 (mouse vas deferens; [3]) [nM] | Emax (mouse vas deferens; [4]) [%] | other results |
| --- | --- | --- | --- |
| C[C@H](CO)NC(=O)c1cccc(/C=C\CCCC(=O)N(C)C)c1 [VSN16R, reference compound] |  |  | EC50 [1]: 17.6 nM; EC50 [2]: 12.7 nM; Emax (mouse vas deferens; Mus musculus): 40.7%; EC50 (mouse vas deferens; Mus musculus, Table 1): 10.4 nM; EC50 (mouse vas deferens; Mus musculus, Table 2): 0.722 nM; Emax (mouse vas deferens; Mus musculus, read-out: Emax (%) ± 95% confidence limits): 56%; EC50 (mouse vas deferens; Mus musculus, read-out: pEC50 ± SEM, Table 1 (converted)): 10.5 nM; EC50 (mouse vas deferens; Mus musculus, wild type, FIG. 3): 10.4 nM |
| CC(CO)NC(=O)c1cccc(/C=C\CCCC(=O)N(C)C)c1 (stereo not shown) [VSN16] |  |  | effect on spasticity (spasticity in CREAE mice): marked effect on spasticity |
| Cc1c(C(=O)c2cccc3ccccc23)c2cccc3c2n1[C@H](CN1CCOCC1)CO3 [WIN55212-2, reference compound] |  |  | pEC50 ± SEM (mouse vas deferens; Table 1): 8.41 ± 0.237; Emax (%) ± 95% confidence limits (mouse vas deferens; Table 1, inhibition of electrically-evoked twitch response): 62 (52-72) %; EC50 (mouse vas deferens; Table 1, read-out: EC50): 3.86 nM |
| C[C@@H](NC(=O)c1cccc(/C=C\CCCC(=O)N(C)C)c1)C(=O)O [[1], (Z)-(3-(6-(dimethylamino)-6-oxohex-1-en-1-yl)benzoyl)-D-alanine] | 0.00655 | 64 | EC50 (mouse vas deferens; Mus musculus, Table 1, read-out: EC50): 1.42 nM; EC50 (mouse vas deferens; Mus musculus, Table 1, read-out: pEC50 ± SEM (converted)): 1.41 nM; Emax (mouse vas deferens; Mus musculus, Table 1, inhibition of electrically-evoked twitch response, read-out: Emax (%) ± 95% confidence limits): 46%; potency (EC50) greater than VSN-16R (mouse vas deferens): 10 fold; potency (EC50) greater than VSN-16R (mouse vas deferens; listed as VSN44): ten-fold greater; potency (EC50) greater than VSN-16R (mouse vas deferens; listed as VSN-44): ≥ 10 fold |
| CN(C)C(=O)CCC/C=C\c1cccc(C(=O)N[C@H](CO)C(=O)O)c1 [[14], (R,Z)-2-(3-(6-(dimethylamino)-6-oxohex-1-en-1-yl)benzamido)-3-hydroxypropanoic acid] | 0.124 | 58.5 |  |
| CN(C)C(=O)CCC/C=C\c1cccc(C(=O)NCC(=O)O)c1 [[15], (Z)-2-(3-(6-(dimethylamino)-6-oxohex-1-en-1-yl)benzamido)acetic acid] | 0.102 | 53.7 |  |
| CN(C)C(=O)CCC/C=C\c1cccc(C(=O)N[C@H](Cc2ccccc2)C(=O)O)c1 [[16], (R,Z)-2-(3-(6-(dimethylamino)-6-oxohex-1-en-1-yl)benzamido)-3-phenylpropanoic acid] | 0.00604 | 73.9 |  |
| CN(C)C(=O)CCC/C=C\c1cccc(C(=O)N[C@@H](Cc2ccccc2)C(=O)O)c1 [[17], (S,Z)-2-(3-(6-(dimethylamino)-6-oxohex-1-en-1-yl)benzamido)-3-phenylpropanoic acid] | 0.14 | 56.3 |  |
| CN(C)C(=O)CCC/C=C\c1cccc(C(=O)N[C@@H](CO)C(=O)O)c1 [[18], (S,Z)-2-(3-(6-(dimethylamino)-6-oxohex-1-en-1-yl)benzamido)-3-hydroxypropanoic acid] | 0.382 | 62.7 |  |
| COC(=O)[C@@H](C)NC(=O)c1cccc(C#CCCCC(=O)N2CCCC2)c1 [[20], (R)-methyl 2-(3-(6-oxo-6-(pyrrolidin-1-yl)hex-1-yn-1-yl)benzamido)propanoate] | 0.466 | 44.7 |  |
| COC(=O)[C@@H](C)NC(=O)c1cccc(/C=C\CCCC(=O)N2CCCC2)c1 [[21], (R,Z)-methyl 2-(3-(6-oxo-6-(pyrrolidin-1-yl)hex-1-en-1-yl)benzamido)propanoate] | 0.162 | 58.3 |  |
| COC(=O)CNC(=O)c1cccc(C#CCCCC(=O)N(C)C)c1 [[22], methyl 2-(3-(6-(dimethylamino)-6-oxohex-1-yn-1-yl)benzamido)acetate] | 0.112 | 52.9 |  |
| COC(=O)CNC(=O)c1cccc(/C=C\CCCC(=O)N(C)C)c1 [[23], (Z)-methyl 2-(3-(6-(dimethylamino)-6-oxohex-1-en-1-yl)benzamido)acetate] | 0.0225 | 59.2 |  |
| COC(=O)[C@H](CO)NC(=O)c1cccc(C#CCCCC(=O)N(C)C)c1 [[24], (S)-methyl 2-(3-(6-(dimethylamino)-6-oxohex-1-yn-1-yl)benzamido)-3-hydroxypropanoate] | 0.412 | 51.5 |  |
| COC(=O)[C@H](CO)NC(=O)c1cccc(/C=C\CCCC(=O)N(C)C)c1 [[25], (S,Z)-methyl 2-(3-(6-(dimethylamino)-6-oxohex-1-en-1-yl)benzamido)-3-hydroxypropanoate] | 0.359 | 52.9 |  |
| COC(=O)[C@H](Cc1ccccc1)NC(=O)c1cccc(/C=C\CCCC(=O)N(C)C)c1 [[27], (S,Z)-methyl 2-(3-(6-(dimethylamino)-6-oxohex-1-en-1-yl)benzamido)-3-phenylpropanoate] | 0.0908 | 55.3 |  |
| COC(=O)[C@@H](CO)NC(=O)c1cccc(/C=C\CCCC(=O)N(C)C)c1 [[29], (R,Z)-methyl 2-(3-(6-(dimethylamino)-6-oxohex-1-en-1-yl)benzamido)-3-hydroxypropanoate] | 0.0456 | 62 |  |
| COC(=O)[C@@H](Cc1ccccc1)NC(=O)c1cccc(C#CCCCC(=O)N(C)C)c1 [[30], (R)-methyl 2-(3-(6-(dimethylamino)-6-oxohex-1-yn-1-yl)benzamido)-3-phenylpropanoate] | 0.0614 | 46.3 |  |
| COC(=O)[C@@H](Cc1ccccc1)NC(=O)c1cccc(/C=C\CCCC(=O)N(C)C)c1 [[31], (R,Z)-methyl 2-(3-(6-(dimethylamino)-6-oxohex-1-en-1-yl)benzamido)-3-phenylpropanoate] | 0.0122 | 47 |  |
| COC(=O)[C@H](C)NC(=O)c1cccc(C#CCCCC(=O)N(C)C)c1 [[32], (S)-methyl 2-(3-(6-(dimethylamino)-6-oxohex-1-yn-1-yl)benzamido)propanoate] | 0.0131 | 54.6 |  |
